Like-named read-outs stand apart in the source and are kept apart here.

Here are results for two molecules from patent EP4494641A1, “SITAGLIPTIN IS A MALT1 INHIBITOR” (Cloudpharm Private Company, priority 2023, dated 2025).

One data set deals with T1, MALT1 (Homo sapiens, UniProt Q9UDY8).
T1 construct: endogenous in cells
T1 sequence (Q9UDY8 1-824): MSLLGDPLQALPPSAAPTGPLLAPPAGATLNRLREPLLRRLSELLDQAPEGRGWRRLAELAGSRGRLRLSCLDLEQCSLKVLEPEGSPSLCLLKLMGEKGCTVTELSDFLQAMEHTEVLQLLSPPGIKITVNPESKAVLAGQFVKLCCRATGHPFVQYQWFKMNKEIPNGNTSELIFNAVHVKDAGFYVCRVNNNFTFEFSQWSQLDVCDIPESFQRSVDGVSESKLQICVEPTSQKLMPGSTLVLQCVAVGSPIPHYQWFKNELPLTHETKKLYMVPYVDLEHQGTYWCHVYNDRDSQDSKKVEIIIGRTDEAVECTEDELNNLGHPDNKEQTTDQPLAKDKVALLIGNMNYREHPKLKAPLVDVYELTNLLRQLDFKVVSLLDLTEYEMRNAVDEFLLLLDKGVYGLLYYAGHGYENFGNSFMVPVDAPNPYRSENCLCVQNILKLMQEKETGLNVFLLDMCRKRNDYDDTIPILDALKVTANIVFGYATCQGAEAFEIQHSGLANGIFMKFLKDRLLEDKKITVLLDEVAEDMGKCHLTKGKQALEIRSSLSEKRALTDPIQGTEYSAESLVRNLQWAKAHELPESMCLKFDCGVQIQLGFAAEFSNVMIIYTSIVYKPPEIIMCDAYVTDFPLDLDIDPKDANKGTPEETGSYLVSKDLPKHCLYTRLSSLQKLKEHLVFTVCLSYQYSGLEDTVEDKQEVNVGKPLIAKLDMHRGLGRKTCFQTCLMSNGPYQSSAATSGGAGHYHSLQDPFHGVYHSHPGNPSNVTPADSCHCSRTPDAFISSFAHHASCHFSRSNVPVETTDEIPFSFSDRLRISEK
Put plainly: EC50 determination for MALT1 inhibition (Trypan blue dye-exclusion in cell lines). The class given is cell-based. An excerpt:
The term is quite general, regardless of whether a test-compound enhances or diminishes the biological parameter in question. Its equation is a modified version of the IC50 equation, taking the ratio of the response (R) to the maximum response (Rmax): {R/Rmax} = {1/ [1+(E50/I)n]}. […] However, some test-compounds achieve only partial attenuation of a biological activity, even at high concentrations. In this case, IC50 values may be misleading about potency.
Cell lines were in log phase of growth, harvested and seeded in a 96-well plate at optimum plating density. Next, cells were incubated with and without test-compounds (0.1 µM - 1 µM - 10 µM) in the presence of positive, negative and untreated controls.

Data set [1] has as its target T2, recombinant full-length human MALT1 (Homo sapiens, UniProt Q9UDY8).
T2 construct: recombinant full-length human MALT1
T2 sequence (Q9UDY8 1-824): T1 sequence (Q9UDY8 1-824)
Briefly: Fluorogenic MALT1 proteolytic activity assay with Ac-LRSR-AMC substrate. In kind it is biochemical. The conditions noted are these: read-out: percent inhibition of MALT1 proteolytic activity. The protocol:
Fluorogenic reactions were monitored in the presence of recombinant full-length human MALT1 and Ac-LRSR-AMC (Ac-Leu-Arg-Ser-Arg-7-amino-4-methylcoumarin) - SEQ ID NO:1 - with excitation/emission wavelengths of 360/460 nm in black, low binding microtiter plates using a microplate reader. Cleavage of the Ac-LRSR-AMC substrate by MALT1 results in the release of AMC and a fluorescent signal. […] The final percent inhibition was calculated with the formula: {[fluorescence_test compound(T2-T1) - fluorescence_negative control (T2-T1)]/ [fluorescence_positive control (T2-T1) - fluorescence_negative control (T2-T1)]} × 100. […] A so-called buffer only test-condition (i.e. MALT1+Ac-LRSR-AMC substrate+buffer) served as negative control. […] MI-2 (C19H17Cl3N4O3; 2-chloro-N-[4-[5-(3,4-dichlorophenyl)-3-(2-methoxyethoxy)-1,2,4-triazol-1-yl] phenyl] acetamide) is an orthosteric and irreversible MALT1 inhibitor (Fontán et al, 2012).

Another data set addresses T3, CYP2C9 (Homo sapiens, UniProt P11712).
T3 construct: purchased Thermo Fisher Scientific (Waltham, MA, USA); host or cells: baculosomes
Put plainly: CYP450 inhibition/induction, baculosomes, fluorescent substrate, kinetic model. In kind it is in vitro ADME. The conditions noted are these: 1 µM; 20°C; t = 60 min. The protocol:
(§1) To determine the isozyme-specific CYP450-metabolism, baculosomes® expressing CYP1A2, CYP2A6, CYP2B6, CYP2C9, CYP2C19, CYP2D6 and CYP3A4 human CYP450 isoenzymes were purchased from Thermo Fisher Scientific (Waltham, MA, USA). All reagents were handled and prepared according to the manufacturer's protocol. Sitagliptin was tested at 1 µM. Enzymatic activity in the presence of sitagliptin was assessed based on the kinetic model for CYP1A2, CYP2A6, CYP2B6, CYP2C9, CYP2C19, CYP2D6 and CYP3A4 isoforms. Reactions took place in triplicates at 20°C. Glucose-6-phosphate at 333 mM and glucose-6-phosphate-dehydrogenase at 30 U/mL in 100 mM potassium phosphate, pH 8.0 (regeneration system) converted NADP+ (10 mM in 100 mM potassium phosphate, pH 8.0) into NADPH to initiate the CYP450 reaction. Upon the addition of the fluorescent substrate, immediately (<2 min), the fluorescence signal was monitored over time at suitable excitation and emission wavelengths by Lionheart FX (BioTek, Winooski, VT, USA). CYP450 inhibition (%) was determined based on the reaction rates (fluorescence intensity changes per unit time).

The target in a further data set is CYP1A2 (Homo sapiens, UniProt P05177). The data set is described as above. In kind it is in vitro ADME. The conditions noted are these: 1 µM; 20°C; t = 60 min. The protocol: as §1
Sequence of CYP1A2 (P05177 whole entry): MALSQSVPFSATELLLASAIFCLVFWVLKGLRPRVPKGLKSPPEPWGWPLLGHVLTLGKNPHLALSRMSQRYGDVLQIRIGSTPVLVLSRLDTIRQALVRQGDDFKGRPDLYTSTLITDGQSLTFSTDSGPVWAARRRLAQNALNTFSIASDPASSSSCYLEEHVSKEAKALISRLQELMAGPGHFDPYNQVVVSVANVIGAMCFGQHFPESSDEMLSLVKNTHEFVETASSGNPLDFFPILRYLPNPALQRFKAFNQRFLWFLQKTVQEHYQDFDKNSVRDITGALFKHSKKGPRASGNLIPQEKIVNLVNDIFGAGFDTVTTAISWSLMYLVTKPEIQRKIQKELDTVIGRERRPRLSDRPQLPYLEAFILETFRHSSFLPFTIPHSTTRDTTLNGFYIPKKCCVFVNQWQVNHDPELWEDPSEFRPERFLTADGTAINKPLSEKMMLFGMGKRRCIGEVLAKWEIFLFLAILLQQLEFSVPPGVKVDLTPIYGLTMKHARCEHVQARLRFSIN
A further data set deals with T4, CYP2B6 (Homo sapiens, UniProt P20813).
T4 construct: purchased Thermo Fisher Scientific (Waltham, MA, USA); host or cells: baculosomes
T4 sequence (P20813 1-491): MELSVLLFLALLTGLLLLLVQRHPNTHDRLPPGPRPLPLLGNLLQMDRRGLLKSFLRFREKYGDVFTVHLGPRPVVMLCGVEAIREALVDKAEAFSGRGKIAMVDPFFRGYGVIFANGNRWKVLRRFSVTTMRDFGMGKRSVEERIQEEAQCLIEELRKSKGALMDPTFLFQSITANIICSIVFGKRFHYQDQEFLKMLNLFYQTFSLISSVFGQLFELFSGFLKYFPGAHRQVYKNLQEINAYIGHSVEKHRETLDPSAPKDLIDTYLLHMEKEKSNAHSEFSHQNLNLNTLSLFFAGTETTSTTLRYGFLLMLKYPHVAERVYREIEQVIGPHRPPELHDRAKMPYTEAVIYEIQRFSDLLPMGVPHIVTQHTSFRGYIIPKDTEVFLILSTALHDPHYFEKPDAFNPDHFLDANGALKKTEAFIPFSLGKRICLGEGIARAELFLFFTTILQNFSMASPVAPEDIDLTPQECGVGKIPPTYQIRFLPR
The description is as above. The class given is in vitro ADME. Particulars: 1 µM; 20°C; t = 60 min. How it is done: as §1

The target in another data set is T5, CYP2D6 (Homo sapiens, UniProt P10635).
T5 construct: purchased Thermo Fisher Scientific (Waltham, MA, USA); host or cells: baculosomes
T5 sequence (P10635 whole entry): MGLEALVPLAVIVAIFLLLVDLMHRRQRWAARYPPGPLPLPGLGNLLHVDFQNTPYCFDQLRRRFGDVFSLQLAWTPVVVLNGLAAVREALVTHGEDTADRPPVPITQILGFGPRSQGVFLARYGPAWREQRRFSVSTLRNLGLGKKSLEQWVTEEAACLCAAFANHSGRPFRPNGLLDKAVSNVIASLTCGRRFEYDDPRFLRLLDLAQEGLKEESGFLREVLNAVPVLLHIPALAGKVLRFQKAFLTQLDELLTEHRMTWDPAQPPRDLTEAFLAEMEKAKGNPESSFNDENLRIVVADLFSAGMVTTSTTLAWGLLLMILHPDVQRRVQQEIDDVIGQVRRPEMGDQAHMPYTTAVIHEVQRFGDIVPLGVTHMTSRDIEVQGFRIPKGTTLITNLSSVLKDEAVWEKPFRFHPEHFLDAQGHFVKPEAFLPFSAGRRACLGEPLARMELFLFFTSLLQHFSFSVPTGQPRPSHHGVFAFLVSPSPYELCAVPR
The data set is described as above. The class given is in vitro ADME. Particulars: 1 µM; 20°C; t = 60 min. How it is done:
as §1

The target in the next data set is T6, CYP2C19 (Homo sapiens, UniProt P33261).
T6 construct: purchased Thermo Fisher Scientific (Waltham, MA, USA); host or cells: baculosomes
T6 sequence (P33261 whole entry): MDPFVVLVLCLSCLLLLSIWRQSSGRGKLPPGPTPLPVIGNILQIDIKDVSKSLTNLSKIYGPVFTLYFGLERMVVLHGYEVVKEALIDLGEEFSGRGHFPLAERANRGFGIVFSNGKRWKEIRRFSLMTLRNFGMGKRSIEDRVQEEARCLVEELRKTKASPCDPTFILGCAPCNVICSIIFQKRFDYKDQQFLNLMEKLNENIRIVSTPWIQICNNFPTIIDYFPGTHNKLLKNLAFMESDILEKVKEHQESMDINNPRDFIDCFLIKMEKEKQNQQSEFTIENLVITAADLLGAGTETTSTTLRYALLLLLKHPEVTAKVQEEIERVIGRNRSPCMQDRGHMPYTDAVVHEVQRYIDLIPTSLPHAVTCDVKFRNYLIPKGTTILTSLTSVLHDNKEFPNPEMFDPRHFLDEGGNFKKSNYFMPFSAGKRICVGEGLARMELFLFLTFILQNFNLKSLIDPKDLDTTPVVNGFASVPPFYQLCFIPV
The description is as above. The conditions noted are these: 1 µM; 20°C; t = 60 min. In kind it is in vitro ADME. The protocol: as §1

The next data set addresses T7, CYP3A4 (Homo sapiens, UniProt P08684).
T7 construct: purchased Thermo Fisher Scientific (Waltham, MA, USA); host or cells: baculosomes
The description is as above. In kind it is in vitro ADME. The conditions noted are these: 1 µM; 20°C; t = 60 min. The protocol: as §1

In another data set the target is T8, CYP2A6 (Homo sapiens, UniProt P11509).
T8 construct: purchased Thermo Fisher Scientific (Waltham, MA, USA); host or cells: baculosomes
T8 sequence (P11509 1-494): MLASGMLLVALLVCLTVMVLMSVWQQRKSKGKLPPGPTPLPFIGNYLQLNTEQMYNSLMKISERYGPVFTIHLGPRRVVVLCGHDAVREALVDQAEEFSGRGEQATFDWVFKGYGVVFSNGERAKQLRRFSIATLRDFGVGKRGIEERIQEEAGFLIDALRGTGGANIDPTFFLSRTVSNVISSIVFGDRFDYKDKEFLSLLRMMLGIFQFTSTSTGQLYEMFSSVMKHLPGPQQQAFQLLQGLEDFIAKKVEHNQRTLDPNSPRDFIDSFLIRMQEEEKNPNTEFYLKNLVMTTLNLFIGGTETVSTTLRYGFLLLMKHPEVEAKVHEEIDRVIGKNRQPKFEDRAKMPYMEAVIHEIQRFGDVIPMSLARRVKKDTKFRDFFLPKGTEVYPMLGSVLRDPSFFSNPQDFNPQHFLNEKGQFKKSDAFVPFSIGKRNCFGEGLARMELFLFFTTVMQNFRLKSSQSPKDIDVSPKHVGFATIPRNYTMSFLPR
The data set is described as above. In kind it is in vitro ADME. The conditions noted are these: 1 µM; 20°C; t = 60 min. How it is done:
as §1

Data set [2] concerns Glioblastoma multiforme (GBM) cell growth (U3024, U87MG). Put plainly: Antiproliferative effect on GBM cell growth, 3D cell cultures. Particulars: tested at 0.1 µM, 1 µM, and 10 µM at t=48h, 3D cultures. In kind it is cell-based, human. The text has this: To measure the MALT1-dependent antiproliferative effect of sitagliptin on GMB cell growth and at the same time account for biases, U3024, an established and characterized GBM cell line derived from GBM patient surgical samples was chosen (https://www.hgcc.se/). U3024 is of mesenchymal subtype (person) and is characterized by MALT1 overexpression. Cell lines were maintained in serum-free neural stem cell media to retain tumour-initiating capacity as well as tumour specific phenotypes (Pollard et al, 2009). The U87MG glioma cell line served as a bona fide human glioblastoma cell line. Cell cultures were performed in 3D. […] Cell lines were in log phase of growth, harvested and seeded in a 96-well plate at optimum plating density. […] DMSO was <0.05%. […] The results are mean ± standard deviation of three independent experiments done in triplicates. […] Three independent experiments were performed in triplicates.

Data set [3] relates to patient-derived glioblastoma cells (U3024). Put plainly: Spheroid disintegration in patient-derived glioblastoma cells over-expressing MALT1. The conditions noted are these: 10 µM; U3024 spheroids compared to untreated spheroids. The class given is cell-based, human. The text has this: To measure the MALT1-dependent antiproliferative effect of sitagliptin on GMB cell growth and at the same time account for biases, U3024, an established and characterized GBM cell line derived from GBM patient surgical samples was chosen (https://www.hgcc.se/). U3024 is of mesenchymal subtype (person) and is characterized by MALT1 overexpression. Cell lines were maintained in serum-free neural stem cell media to retain tumour-initiating capacity as well as tumour specific phenotypes (Pollard et al, 2009). The U87MG glioma cell line served as a bona fide human glioblastoma cell line. Cell cultures were performed in 3D. […] Cell lines were in log phase of growth, harvested and seeded in a 96-well plate at optimum plating density. […] DMSO was <0.05%.

T7 sequence (P08684 whole entry): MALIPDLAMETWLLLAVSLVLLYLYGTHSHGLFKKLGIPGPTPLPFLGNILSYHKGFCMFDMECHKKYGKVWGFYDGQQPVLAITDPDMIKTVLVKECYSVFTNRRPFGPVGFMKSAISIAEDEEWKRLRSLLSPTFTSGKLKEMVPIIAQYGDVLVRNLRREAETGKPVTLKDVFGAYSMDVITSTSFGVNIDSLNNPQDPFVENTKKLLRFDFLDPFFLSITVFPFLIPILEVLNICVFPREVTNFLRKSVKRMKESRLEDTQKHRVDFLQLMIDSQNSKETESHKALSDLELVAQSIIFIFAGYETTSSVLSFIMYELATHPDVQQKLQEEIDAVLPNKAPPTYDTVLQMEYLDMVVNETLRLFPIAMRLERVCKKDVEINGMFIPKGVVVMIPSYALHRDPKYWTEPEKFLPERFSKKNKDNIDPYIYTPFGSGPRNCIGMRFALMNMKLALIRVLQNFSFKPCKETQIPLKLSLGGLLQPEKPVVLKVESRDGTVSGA
T3 sequence (P11712 whole entry): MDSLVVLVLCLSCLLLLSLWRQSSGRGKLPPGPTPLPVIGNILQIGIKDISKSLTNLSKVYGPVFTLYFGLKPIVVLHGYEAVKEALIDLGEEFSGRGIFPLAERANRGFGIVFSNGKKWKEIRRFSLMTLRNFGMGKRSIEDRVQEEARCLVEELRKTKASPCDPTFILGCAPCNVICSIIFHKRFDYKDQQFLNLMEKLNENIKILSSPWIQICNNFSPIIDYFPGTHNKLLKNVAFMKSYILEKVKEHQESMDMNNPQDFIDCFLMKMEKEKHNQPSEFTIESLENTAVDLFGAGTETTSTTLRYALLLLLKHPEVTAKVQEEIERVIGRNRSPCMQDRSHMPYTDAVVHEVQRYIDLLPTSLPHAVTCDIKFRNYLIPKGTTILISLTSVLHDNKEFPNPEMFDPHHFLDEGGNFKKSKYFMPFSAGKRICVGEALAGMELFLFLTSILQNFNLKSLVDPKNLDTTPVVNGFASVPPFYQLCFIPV

`COCCOc1nc(-c2ccc(Cl)c(Cl)c2)n(-c2ccc(NC(=O)CCl)cc2)n1` [MI-2, 2-chloro-N-[4-[5-(3,4-dichlorophenyl)-3-(2-methoxyethoxy)-1,2,4-triazol-1-yl]phenyl] acetamide] registered an EC50 on MALT1 of 1000 nM.

As for `N[C@@H](CC(=O)N1CCn2c(nnc2C(F)(F)F)C1)Cc1cc(F)c(F)cc1F` [Sitagliptin, (3R)-3-amino-1-[3-(trifluoromethyl)-6,8-dihydro-5H-[1,2,4]triazolo[4,3-a]pyrazin-7-yl]-4-(2,4,5-trifluorophenyl)butan-1-one], the inhibition at 10 µM in [1] was not below 40%. Further, on CYP2C9, the “CYP2C9 inhibition / induction” value is “does not inhibit nor induces”. At CYP1A2, the “CYP1A2 inhibition / induction” value is recorded as “does not inhibit nor induces”. Further, the “CYP2B6 inhibition / induction” value at CYP2B6 is “does not inhibit nor induces”. Also, at CYP2D6, the “CYP2D6 inhibition / induction” value was “does not inhibit nor induces”. Moreover, the “CYP2C19 inhibition / induction” value on CYP2C19 was “does not inhibit nor induces”. Moreover, the “CYP3A4 inhibition / induction” value on CYP3A4 is recorded as “does not inhibit nor induces”. For the same molecule, the “CYP2A6 inhibition / induction” value at CYP2A6 is “does not inhibit nor induces”. At MALT1 (0.1 µM - 1 µM - 10 µM, Trypan blue dye-exclusion at t=48h, mean of three independent experiments in triplicates, read-out: EC50 values), the EC50 stood at 1300 nM. Moreover, the “antiproliferative effect on GBM cell growth” value in data set [2] is listed as “strong antiproliferative effect”. In data set [3], the “inhibition of MALT1 resulting in spheroid disintegration” value is on record as “spheroid disintegration”.
